Assay results: patent publication US20240246942A1, “KINASE INHIBITORS FOR THE TREATMENT OF NEURODEGENERATIVE DISEASES” (priority 2020, published 2024)
Like-named read-outs stand apart in the source and are kept apart here.

How the values were obtained:
Assay in all cases: biochemical
[1] = target: T1, panel of 374 wild-type kinases (Homo sapiens, UniProt Q15349); conditions: read-out: % Enzyme Activity (relative to DMSO controls), kinase RSK3
T1 construct: purchased Reaction Biology Corporation

[2] = target: T2, panel of 374 wild-type kinases (Homo sapiens, UniProt Q00535)
T2 construct: purchased Reaction Biology Corporation

[3] = target: T3, panel of 374 wild-type kinases (Homo sapiens, UniProt Q16566); conditions: read-out: % Enzyme Activity (relative to DMSO controls), CAMK4
T3 construct: purchased Reaction Biology Corporation

[4] = target: T4, panel of 374 wild-type kinases (Homo sapiens, UniProt P49840); conditions: read-out: % Enzyme Activity (relative to DMSO controls), GSK3a
T4 construct: purchased Reaction Biology Corporation

[5] = target: T5, panel of 374 wild-type kinases (Homo sapiens, UniProt P34947); conditions: read-out: % Enzyme Activity (relative to DMSO controls), GRK5
T5 construct: purchased Reaction Biology Corporation

[6] = target: T6, panel of 374 wild-type kinases (Homo sapiens, UniProt P53667); conditions: read-out: % Enzyme Activity (relative to DMSO controls), LIMK1
T6 construct: purchased Reaction Biology Corporation

[7] = target: T7, panel of 374 wild-type kinases (Homo sapiens, UniProt O94921); conditions: read-out: % Enzyme Activity (relative to DMSO controls), CDK14/cyclin Y (PFTK1)
T7 construct: purchased Reaction Biology Corporation

[8] = target: T8, panel of 374 wild-type kinases (Homo sapiens, UniProt Q8IW41); conditions: read-out: % Enzyme Activity (relative to DMSO controls), MAPKAPK5/PRAK
T8 construct: purchased Reaction Biology Corporation
T8 sequence (Q8IW41 1-473): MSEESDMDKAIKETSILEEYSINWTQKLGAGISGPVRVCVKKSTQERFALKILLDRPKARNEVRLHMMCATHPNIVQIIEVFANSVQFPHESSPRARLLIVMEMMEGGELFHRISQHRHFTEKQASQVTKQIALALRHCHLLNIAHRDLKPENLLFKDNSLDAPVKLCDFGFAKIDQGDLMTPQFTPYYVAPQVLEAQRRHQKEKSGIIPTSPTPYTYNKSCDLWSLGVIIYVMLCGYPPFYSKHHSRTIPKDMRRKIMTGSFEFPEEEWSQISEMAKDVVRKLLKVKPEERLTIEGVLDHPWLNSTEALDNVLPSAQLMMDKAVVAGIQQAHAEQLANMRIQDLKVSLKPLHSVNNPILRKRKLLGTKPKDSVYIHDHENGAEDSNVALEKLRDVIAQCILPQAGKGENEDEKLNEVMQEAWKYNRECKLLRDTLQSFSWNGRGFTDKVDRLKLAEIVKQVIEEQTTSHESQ

[9] = target: T9, panel of 374 wild-type kinases (Homo sapiens, UniProt Q8N5S9); conditions: read-out: % Enzyme Activity (relative to DMSO controls), CAMKK1
T9 construct: purchased Reaction Biology Corporation

[10] = target: T10, panel of 374 wild-type kinases (Homo sapiens, UniProt P80192); conditions: read-out: % Enzyme Activity (relative to DMSO controls), MLK1/MAP3K9
T10 construct: purchased Reaction Biology Corporation

[11] = target: T11, panel of 374 wild-type kinases (Homo sapiens, UniProt P35968); conditions: read-out: % Enzyme Activity (relative to DMSO controls), KDR/VEGFR2
T11 construct: purchased Reaction Biology Corporation

[12] = target: T12, panel of 374 wild-type kinases (Homo sapiens, UniProt Q05655); conditions: read-out: % Enzyme Activity (relative to DMSO controls), kinase PKCd
T12 construct: purchased Reaction Biology Corporation

[13] = target: T13, panel of 374 wild-type kinases (Homo sapiens, UniProt Q8NG66); conditions: read-out: % Enzyme Activity (relative to DMSO controls), NEK11
T13 construct: purchased Reaction Biology Corporation
T13 sequence (Q8NG66 1-645): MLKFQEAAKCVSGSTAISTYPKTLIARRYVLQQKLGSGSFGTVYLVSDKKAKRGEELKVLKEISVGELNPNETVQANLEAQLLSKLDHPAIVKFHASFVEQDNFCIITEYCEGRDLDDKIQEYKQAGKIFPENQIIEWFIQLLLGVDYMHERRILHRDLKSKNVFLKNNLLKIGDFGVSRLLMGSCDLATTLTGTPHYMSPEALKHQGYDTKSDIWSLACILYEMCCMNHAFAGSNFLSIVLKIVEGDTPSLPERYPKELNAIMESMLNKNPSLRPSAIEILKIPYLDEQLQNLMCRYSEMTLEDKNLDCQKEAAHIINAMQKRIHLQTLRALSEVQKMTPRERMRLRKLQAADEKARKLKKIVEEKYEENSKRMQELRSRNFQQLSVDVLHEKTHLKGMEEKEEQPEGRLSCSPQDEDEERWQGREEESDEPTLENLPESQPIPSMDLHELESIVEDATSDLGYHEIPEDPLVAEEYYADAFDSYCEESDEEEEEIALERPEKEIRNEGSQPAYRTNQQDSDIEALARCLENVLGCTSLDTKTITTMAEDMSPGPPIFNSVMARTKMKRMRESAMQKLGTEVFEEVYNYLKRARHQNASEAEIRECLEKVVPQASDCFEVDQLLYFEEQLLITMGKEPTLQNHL

[14] = target: T14, panel of 374 wild-type kinases (Homo sapiens, UniProt Q00526)
T14 construct: purchased Reaction Biology Corporation

[15] = target: T15, panel of 374 wild-type kinases (Homo sapiens, UniProt Q96KB5); conditions: read-out: % Enzyme Activity (relative to DMSO controls), kinase PBK/TOPK
T15 construct: purchased Reaction Biology Corporation
T15 sequence (Q96KB5 1-322): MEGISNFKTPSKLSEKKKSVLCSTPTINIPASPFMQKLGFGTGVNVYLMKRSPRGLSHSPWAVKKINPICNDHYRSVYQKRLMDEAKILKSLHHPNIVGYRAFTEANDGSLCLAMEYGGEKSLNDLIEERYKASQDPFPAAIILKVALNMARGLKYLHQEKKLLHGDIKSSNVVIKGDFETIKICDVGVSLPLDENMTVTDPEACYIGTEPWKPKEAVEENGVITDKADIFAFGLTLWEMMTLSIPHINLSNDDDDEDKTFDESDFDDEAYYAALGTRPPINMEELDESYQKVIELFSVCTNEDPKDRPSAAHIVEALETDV

[16] = read-out: % Enzyme Activity (relative to DMSO controls), CDK5/P25
[17] = read-out: % Enzyme Activity (relative to DMSO controls), CDK5/p35
[18] = read-out: % Enzyme Activity (relative to DMSO controls), CDK3/cyclin E2
[19] = read-out: % Enzyme Activity (relative to DMSO controls), CDK3/cyclin E

T14 sequence (Q00526 whole entry): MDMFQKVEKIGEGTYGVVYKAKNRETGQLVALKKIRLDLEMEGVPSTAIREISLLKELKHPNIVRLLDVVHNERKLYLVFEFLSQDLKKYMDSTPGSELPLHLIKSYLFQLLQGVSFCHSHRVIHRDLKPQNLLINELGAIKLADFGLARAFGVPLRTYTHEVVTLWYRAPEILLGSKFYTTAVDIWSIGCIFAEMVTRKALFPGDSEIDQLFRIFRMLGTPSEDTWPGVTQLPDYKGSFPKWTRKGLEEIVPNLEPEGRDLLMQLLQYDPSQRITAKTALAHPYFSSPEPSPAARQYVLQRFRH
T5 sequence (P34947 whole entry): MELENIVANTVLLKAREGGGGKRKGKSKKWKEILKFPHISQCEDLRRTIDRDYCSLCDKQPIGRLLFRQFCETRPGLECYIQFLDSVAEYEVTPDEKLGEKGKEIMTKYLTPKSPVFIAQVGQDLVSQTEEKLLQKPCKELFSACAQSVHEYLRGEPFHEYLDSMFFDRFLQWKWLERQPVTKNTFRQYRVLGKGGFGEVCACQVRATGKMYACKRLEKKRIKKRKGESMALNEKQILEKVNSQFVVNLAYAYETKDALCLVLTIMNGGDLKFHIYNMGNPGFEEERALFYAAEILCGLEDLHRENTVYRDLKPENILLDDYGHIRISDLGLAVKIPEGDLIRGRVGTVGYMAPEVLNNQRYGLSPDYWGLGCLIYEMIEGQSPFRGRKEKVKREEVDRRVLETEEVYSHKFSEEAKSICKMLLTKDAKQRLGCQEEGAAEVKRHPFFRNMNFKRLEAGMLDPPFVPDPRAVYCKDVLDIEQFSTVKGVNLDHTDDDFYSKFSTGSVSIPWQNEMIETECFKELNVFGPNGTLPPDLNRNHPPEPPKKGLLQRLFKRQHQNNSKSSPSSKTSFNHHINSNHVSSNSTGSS
T6 sequence (P53667 whole entry): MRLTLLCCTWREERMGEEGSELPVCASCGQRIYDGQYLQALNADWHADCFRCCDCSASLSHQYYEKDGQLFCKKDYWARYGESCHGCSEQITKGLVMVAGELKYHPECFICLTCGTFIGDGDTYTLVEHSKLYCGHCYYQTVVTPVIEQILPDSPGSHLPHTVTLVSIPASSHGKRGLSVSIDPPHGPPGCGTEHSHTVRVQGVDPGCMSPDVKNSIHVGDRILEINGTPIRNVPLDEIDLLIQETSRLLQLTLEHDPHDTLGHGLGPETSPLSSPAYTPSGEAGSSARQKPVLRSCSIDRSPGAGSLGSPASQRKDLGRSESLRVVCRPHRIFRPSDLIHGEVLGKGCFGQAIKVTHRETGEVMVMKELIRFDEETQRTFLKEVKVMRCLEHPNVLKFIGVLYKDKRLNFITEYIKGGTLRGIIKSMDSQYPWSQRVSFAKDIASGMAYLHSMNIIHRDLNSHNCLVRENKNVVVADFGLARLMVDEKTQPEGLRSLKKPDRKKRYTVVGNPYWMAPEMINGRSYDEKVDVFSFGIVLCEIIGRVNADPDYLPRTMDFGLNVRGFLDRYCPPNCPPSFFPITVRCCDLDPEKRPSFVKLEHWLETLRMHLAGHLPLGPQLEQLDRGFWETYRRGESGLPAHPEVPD
T2 sequence (Q00535 whole entry): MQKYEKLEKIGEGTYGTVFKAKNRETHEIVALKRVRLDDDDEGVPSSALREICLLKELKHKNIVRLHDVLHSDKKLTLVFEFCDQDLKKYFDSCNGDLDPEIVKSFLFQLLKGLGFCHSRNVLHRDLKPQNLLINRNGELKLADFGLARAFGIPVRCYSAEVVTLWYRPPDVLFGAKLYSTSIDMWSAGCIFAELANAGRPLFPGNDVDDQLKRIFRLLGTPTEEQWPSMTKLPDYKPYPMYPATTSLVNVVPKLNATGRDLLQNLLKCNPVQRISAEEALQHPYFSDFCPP
T7 sequence (O94921 whole entry): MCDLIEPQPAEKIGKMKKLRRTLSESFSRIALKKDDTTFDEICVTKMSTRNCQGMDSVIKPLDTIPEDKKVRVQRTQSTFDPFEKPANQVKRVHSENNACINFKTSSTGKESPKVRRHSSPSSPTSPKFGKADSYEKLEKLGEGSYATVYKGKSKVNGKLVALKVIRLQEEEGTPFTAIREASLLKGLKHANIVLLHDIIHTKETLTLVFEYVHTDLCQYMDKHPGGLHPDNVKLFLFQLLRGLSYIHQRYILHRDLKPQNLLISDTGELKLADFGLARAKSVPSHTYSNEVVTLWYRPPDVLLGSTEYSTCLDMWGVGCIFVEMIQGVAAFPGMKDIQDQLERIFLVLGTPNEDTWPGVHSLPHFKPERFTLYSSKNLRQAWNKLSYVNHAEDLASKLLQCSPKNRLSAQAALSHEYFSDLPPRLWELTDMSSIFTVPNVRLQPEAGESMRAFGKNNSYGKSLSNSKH
T4 sequence (P49840 whole entry): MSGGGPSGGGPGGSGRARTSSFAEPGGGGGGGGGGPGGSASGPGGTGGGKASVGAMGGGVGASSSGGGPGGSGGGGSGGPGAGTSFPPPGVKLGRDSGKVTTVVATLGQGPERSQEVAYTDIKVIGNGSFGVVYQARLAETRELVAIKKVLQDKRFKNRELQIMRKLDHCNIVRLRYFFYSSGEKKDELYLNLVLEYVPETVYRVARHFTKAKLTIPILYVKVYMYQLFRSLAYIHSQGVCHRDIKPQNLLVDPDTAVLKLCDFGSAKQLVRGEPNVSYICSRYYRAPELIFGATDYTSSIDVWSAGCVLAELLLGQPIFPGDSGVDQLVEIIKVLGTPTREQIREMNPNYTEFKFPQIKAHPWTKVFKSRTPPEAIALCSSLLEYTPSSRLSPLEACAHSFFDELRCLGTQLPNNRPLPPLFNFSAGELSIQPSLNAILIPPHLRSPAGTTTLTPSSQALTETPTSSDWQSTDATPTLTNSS
T9 sequence (Q8N5S9 whole entry): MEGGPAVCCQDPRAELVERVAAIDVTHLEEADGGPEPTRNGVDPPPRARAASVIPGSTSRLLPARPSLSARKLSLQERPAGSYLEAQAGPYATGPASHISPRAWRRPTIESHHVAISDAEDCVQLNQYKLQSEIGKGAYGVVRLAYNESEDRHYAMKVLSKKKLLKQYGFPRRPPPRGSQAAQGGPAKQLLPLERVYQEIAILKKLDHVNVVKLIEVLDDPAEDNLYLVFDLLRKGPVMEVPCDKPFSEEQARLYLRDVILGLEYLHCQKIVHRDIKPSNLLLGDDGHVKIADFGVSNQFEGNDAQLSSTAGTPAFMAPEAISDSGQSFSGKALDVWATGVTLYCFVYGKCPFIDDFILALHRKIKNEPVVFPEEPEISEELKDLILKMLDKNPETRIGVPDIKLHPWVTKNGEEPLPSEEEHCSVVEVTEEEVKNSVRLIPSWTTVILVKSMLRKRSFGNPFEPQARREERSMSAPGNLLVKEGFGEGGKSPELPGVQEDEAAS
T10 sequence (P80192 whole entry): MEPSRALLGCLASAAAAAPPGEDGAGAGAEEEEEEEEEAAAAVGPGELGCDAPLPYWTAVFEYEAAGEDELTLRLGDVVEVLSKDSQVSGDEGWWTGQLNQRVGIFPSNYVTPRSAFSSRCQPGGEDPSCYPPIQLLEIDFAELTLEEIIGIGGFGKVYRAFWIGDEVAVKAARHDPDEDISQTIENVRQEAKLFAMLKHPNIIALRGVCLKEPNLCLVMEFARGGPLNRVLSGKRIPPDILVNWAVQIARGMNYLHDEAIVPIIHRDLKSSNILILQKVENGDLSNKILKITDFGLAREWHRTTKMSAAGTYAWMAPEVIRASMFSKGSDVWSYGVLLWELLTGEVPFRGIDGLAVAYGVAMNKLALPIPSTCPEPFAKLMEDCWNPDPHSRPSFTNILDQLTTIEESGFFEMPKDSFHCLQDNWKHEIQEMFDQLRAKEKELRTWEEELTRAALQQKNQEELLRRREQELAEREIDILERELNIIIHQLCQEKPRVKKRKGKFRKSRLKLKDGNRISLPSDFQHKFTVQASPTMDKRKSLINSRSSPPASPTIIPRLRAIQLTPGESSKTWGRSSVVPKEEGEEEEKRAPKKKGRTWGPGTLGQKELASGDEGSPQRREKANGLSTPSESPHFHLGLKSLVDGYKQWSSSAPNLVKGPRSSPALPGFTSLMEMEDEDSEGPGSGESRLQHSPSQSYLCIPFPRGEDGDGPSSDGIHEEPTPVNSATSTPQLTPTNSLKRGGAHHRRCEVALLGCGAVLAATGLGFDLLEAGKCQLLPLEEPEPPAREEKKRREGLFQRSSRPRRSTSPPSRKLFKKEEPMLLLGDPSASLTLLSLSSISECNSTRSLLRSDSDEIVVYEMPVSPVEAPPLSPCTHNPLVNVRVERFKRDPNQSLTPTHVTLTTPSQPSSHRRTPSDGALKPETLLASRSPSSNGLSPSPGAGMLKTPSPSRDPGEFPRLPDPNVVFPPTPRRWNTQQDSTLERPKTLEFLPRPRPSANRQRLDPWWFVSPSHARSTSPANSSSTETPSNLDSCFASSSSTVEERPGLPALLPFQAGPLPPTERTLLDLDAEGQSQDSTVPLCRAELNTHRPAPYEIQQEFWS
T3 sequence (Q16566 whole entry): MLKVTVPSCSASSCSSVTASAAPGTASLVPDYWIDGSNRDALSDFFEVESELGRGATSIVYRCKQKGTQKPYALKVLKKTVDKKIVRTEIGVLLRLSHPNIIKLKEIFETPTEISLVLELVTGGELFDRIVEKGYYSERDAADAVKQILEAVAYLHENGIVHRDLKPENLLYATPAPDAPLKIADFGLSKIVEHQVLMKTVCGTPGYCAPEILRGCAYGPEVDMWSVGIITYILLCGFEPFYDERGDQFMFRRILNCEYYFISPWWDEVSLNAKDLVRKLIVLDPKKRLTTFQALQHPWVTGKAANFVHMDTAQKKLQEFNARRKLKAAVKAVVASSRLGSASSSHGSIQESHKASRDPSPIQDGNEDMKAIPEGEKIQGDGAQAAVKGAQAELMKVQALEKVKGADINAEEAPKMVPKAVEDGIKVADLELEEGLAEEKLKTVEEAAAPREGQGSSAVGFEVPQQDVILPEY

| Structure (SMILES) | remaining activity at 5 µM [1] | remaining activity at 5 µM [2, 16] | remaining activity at 5 µM [2, 17] | remaining activity at 5 µM [3] | remaining activity at 5 µM [4] | remaining activity at 5 µM [5] | remaining activity at 5 µM [6] | remaining activity at 5 µM [7] | remaining activity at 5 µM [8] | remaining activity at 5 µM [9] | remaining activity at 5 µM [10] | remaining activity at 5 µM [11] | remaining activity at 5 µM [12] | remaining activity at 5 µM [13] | remaining activity at 5 µM [14, 18] | remaining activity at 5 µM [14, 19] | remaining activity at 5 µM [15] | also measured |
| --- | --- | --- | --- | --- | --- | --- | --- | --- | --- | --- | --- | --- | --- | --- | --- | --- | --- | --- |
| Cc1sc(C(=O)NC2COC2)cc1-n1cc(NC(=O)Nc2c(F)cccc2Cl)cn1 [Compound 27, 4-(4-(3-(2-chloro-6-fluorophenyl)ureido)-1H-pyrazol-1-yl)-5-methyl-N-(oxetan-3-yl)thiophene-2-carboxamide] | – | – | – | – | – | – | – | – | – | – | – | – | – | – | – | – | – | remaining activity at 10 µM ([1]; 10 uM): 100%; remaining activity at 10 µM [2, 16]: 97.6%; remaining activity at 10 µM [2, 17]: 103%; remaining activity at 10 µM ([3]; 10 uM): 98.5%; remaining activity at 10 µM ([4]; 10 uM): 128%; remaining activity at 10 µM ([5]; 10 uM): 113%; remaining activity at 10 µM ([6]; 10 uM): 105%; remaining activity at 10 µM ([7]; 10 uM): 100%; remaining activity at 10 µM ([8]; 10 uM): 96.5%; remaining activity at 10 µM ([9]; 10 uM): 121%; remaining activity at 10 µM ([10]; 10 uM): 87.5%; remaining activity at 10 µM ([11]; 10 uM): 88.2%; remaining activity at 10 µM ([12]; 10 uM): 98%; remaining activity at 10 µM ([13]; 10 uM): 70%; remaining activity at 10 µM [14, 18]: 103%; remaining activity at 10 µM [14, 19]: 91.2%; remaining activity at 10 µM ([15]; 10 uM): 88.5% |
| O=C(Nc1cnn(-c2csc(C(=O)NC3COC3)c2)c1)Nc1c(F)cccc1Cl [Compound 25, 4-(4-(3-(2-chloro-6-fluorophenyl)ureido)-1H-pyrazol-1-yl)-N-(oxetan-3-yl)thiophene-2-carboxamide] | 90.1% | 88.2% | 94.3% | 98.7% | 93.5% | 102% | 104% | 110% | 99.7% | 93.7% | 88.5% | 88.3% | 101% | 89.5% | 109% | 92.2% | 98.2% | – |
| O=C(Nc1cnn(-c2csc(C(=O)NC3COC3)c2)c1)Nc1ccccc1Cl [Compound 17, 4-(4-(3-(2-chlorophenyl)ureido)-1H-pyrazol-1-yl)-N-(oxetan-3-yl)thiophene-2-carboxamide] | 103% | 101% | 95.4% | 114% | 97.4% | 98% | 96.2% | 107% | 92.8% | 130% | 95.1% | 95.2% | 112% | 145% | 95.8% | 107% | 115% | – |
